This note sets out measurements from patent US20180333461A1, “METHODS AND COMPOSITIONS FOR TREATING OR PREVENTING FLAVIVIRUS INFECTIONS” (THE UNIVERSITY OF QUEENSLAND, priority 2014, published 2018).

Entries after “also recorded” stand apart in the source; their conditions may differ.

The test system of assay [1] is bone marrow-derived macrophages (BMM). Briefly: CSF-1R down-modulation assay on BMMs (flow cytometry). The class given is cell-based, mouse. The following applies: 1 hour treatment. The procedure: NS1 and LPS were pre-incubated for 30 minutes with or without polymyxin B, then added to PBMC and incubated for 24 hours. The final concentration of polymyxin B was 25 μg/mL, with varying concentrations of LPS (0.1, 1, 10 ng/mL) and NS1 (5, 10, 20 and 40 μg/mL). Released IL-6 was measured by ELISA. […] NS1 and LPS were pre-incubated for 30 minutes with or without polymyxin B then added to BMMs that had been starved of CSF1 overnight. The final concentration of polymyxin B was 25 μg/mL, with LPS (10-fold dilutions from 100 ng/mL) and NS1 (2′-fold dilutions from 10 μg/mL). After 1 hour of treatment, CSF1R levels were determined by flow cytometry, and the % of cells with high levels of receptor are shown. Data are the mean±SD from three (A) or five (B) independent experiments.
FIG. 3 is a graphical representation showing that NS1 from several sources has immunostimulatory activity. (A) NS1 immuno-depletion prevents the down-modulation of surface CSF1R by S2 cell-expressed NS1. […] The final concentration of 5 μg/mL NS1 (as quantified by capture-ELISA) represents approximately 4-fold higher levels than produced in the CHO cell medium. […]
FIG. 5 is a graphical representation showing that NS1 activates cells via TLR4. […] CSF1R on wild-type C57BL/6 BMM (WT), tlr4^−/− and MyD88^−/−/trif^−/− BMMs was measured after 1 hour treatment with CSF1 (10^4 U/mL), LPS (100 ng/mL) and NS1 (10 μg/mL). […]

Assay [2] deals with human PBMC. Briefly: IL-6 secretion by human PBMC (ELISA), with or without polymyxin B pre-incubation. The following applies: 24 hours. The class given is cell-based. The procedure: FIG. 1 is a graphical representation showing that Dengue NS1 activates human and mouse innate immune responses. (A) NS1 induces IL-6 secretion by human PBMC. Cells were treated for 24 hrs. with LPS (100 ng/mL), NS1 (40 μg/mL), or an analogous NS1 sample immune-depleted with anti-NS1 or anti-E antibody. IL-6 was measured by ELISA. Data shown is mean±SD of three donors. The inset immunoblot is of the supernatant fraction following immuno-depletion using anti-NS1 antibody or isotype-matched control antibody. […] ELAM promoter activity was monitored as in B, in response to LPS (100 ng/mL), NS1 (40 μg/mL), NS1 immuno-depleted using anti-NS1 antibody or isotype-matched control antibody (confirmed in western blot inset).
NS1 and LPS were pre-incubated for 30 minutes with or without polymyxin B, then added to PBMC and incubated for 24 hours. […] Released IL-6 was measured by ELISA. […] After 1 hour of treatment, CSF1R levels were determined by flow cytometry, and the % of cells with high levels of receptor are shown. […]
Human PBMCs from healthy donors were seeded at 1×10^6 cells per well in 12 well plates prior to incubation with NS1 or LPS. […] The level of IL-6 production was quantitated ELISA (R & D Systems) according to the protocol recommended by the manufacturer.

With polymyxin B, in assay [1] (polymyxin B 25 μg/mL pre-incubated with LPS 30 min), the “Effect on LPS-induced loss of surface CSF1R on BMMs” value was “sensitive”. In assay [1] (polymyxin B 25 μg/mL pre-incubated with NS1 30 min), the “Effect on NS1-induced loss of surface CSF1R on BMMs” value is “does not block”. For the same substance, the “Effect on LPS-induced IL-6 in PBMC” value in assay [2] (polymyxin B 25 μg/mL pre-incubated with LPS 30 min, LPS ≤10 ng/mL) was “inhibited”. Further, in assay [2] (polymyxin B 25 μg/mL pre-incubated with NS1 (5-40 μg/mL) 30 min), the “Effect on NS1-induced IL-6 in PBMC” value is given as “does not block; also recorded: unaffected”.
